For data set [1] the following is noted: in air, 25° C., 60% relative humidity. How it is done: The content of 5-methyltetrahydrofolic acid salt which is quoted in the examples was s determined by HPLC in each case and is given as % area. The water content was determined by a Karl Fischer method.
In order to determine the stabilities of the crystalline salts of 5-methyltetrahydrofolic acid, the substances were stored, together with comparison specimens, in air at 25° C. and at 60% relative humidity. The content of 5-methyltetrahydrofolic acid salt remaining was measured at periodic intervals and is given by comparison with the initial value.

Read-outs that look alike come from different tables or passages of the source.

For the compound `CN1c2c([nH]c(N)nc2=O)NC[C@@H]1CNc1ccc(C(=O)N[C@@H](CCC(=O)[O-])C(=O)[O-])cc1.[Ca+2]` [Amorphous calcium salt of 5-methyl-(6S)-tetrahydrofolic acid] [reference compound], the “content of 5-methyltetrahydrofolic acid salt remaining, compared with the initial value” stood at 100% in data set [1] (storage 0 months) and 84.2% in data set [1] (storage 12 months).
As for `CN1c2c([nH]c(N)nc2=O)NC[C@@H]1CNc1ccc(C(=O)N[C@@H](CCC(=O)[O-])C(=O)[O-])cc1.[Ca+2]` [Crystalline calcium salt of 5-methyl-(6S)-tetrahydrofolic ac] [calcium salt of 5-methyl-(6S)-tetrahydrofolic acid], the “content of 5-methyltetrahydrofolic acid salt remaining, compared with the initial value” in data set [1] (storage 0 months) is given as 100%; in data set [1] (storage 3 months), 98.6%; in data set [1] (storage 6 months), 98.7%; in data set [1] (storage 12 months) it was 99.1%; in data set [1] (storage 18 months), 99.0%; in data set [1] (storage 88 months) it was 97.8%.
Take `CN1c2c([nH]c(N)nc2=O)NC[C@@H]1CNc1ccc(C(=O)N[C@@H](CCC(=O)[O-])C(=O)[O-])cc1.[Ca+2]` [Type I, calcium salt of 5-methyl-(6S)-tetrahydrofolic acid]: the “Solubility at 20° C. in 0.9% NaCl” value is on record as 1.6% and the “Solubility at 20° C. in water” value stood at 1.1%.
As for `CN1c2c([nH]c(N)nc2=O)NC[C@@H]1CNc1ccc(C(=O)N[C@@H](CCC(=O)[O-])C(=O)[O-])cc1.[Ca+2]` [Type II, calcium salt of 5-methyl-(6S)-tetrahydrofolic acid], the “Solubility at 20° C. in 0.9% NaCl” value came to 5.8% and the “Solubility at 20° C. in water” value turned out to be 3.8%.
`CN1c2c([nH]c(N)nc2=O)NC[C@@H]1CNc1ccc(C(=O)N[C@@H](CCC(=O)[O-])C(=O)[O-])cc1.[Ca+2]` [Type III, calcium salt of 5-methyl-(6S)-tetrahydrofolic acid]: the “Solubility at 20° C. in 0.9% NaCl” value stood at 1.5% and the “Solubility at 20° C. in water” value stood at 1.0%.
